This note sets out measurements from ChEMBL document CHEMBL1146200, “In vitro activity of aurein 1.2 alone and in combination with antibiotics against gram-positive nosocomial cocci” (Antimicrob Agents Chemother, 2007).

Values after ≈ are worked out from the molar mass of the structure shown. Non-standard residues stand in square brackets, D forms with d. Residues, ends and D or L forms follow the SMILES beside them. Phg = N[C@H](C(=O)O)c1ccccc1

The subject of data set [1] is Staphylococcus aureus. In words: Antimicrobial activity against […] Staphylococcus aureus ATCC 29213. The format is functional. To be noted: for MIC50 / MIC90: Staphylococcus aureus, ATCC 29213.
Data set [2] concerns Staphylococcus aureus. In words: Antimicrobial activity against […] Staphylococcus aureus ATCC 43300. To be noted: for MIC50 / MIC90: Staphylococcus aureus, ATCC 43300. The format is functional.
In data set [3] the test system is Enterococcus faecalis. In words: Antimicrobial activity against vancomycin-susceptible Enterococcus faecalis ATCC 29212. Conditions: for MIC50 / MIC90: Enterococcus faecalis, ATCC 29212. The format is functional.
The subject of data set [4] is Enterococcus faecalis. As to the kind of experiment: Antimicrobial activity against vancomycin-resistant Enterococcus faecalis ATCC 51299. The format is functional. To be noted: for MIC50 / MIC90: Enterococcus faecalis, ATCC 51299.
The subject of another data set is Streptococcus pyogenes. As to the kind of experiment: Antimicrobial activity against Streptococcus pyogenes ATCC 19615. The format is functional. Conditions: for MIC50 / MIC90: Streptococcus pyogenes, ATCC 19615.
The next data set deals with A549. As to the kind of experiment: Cytotoxicity against human A549 cells. The format is cell-based.

Broadly, the MIC50 is an inhibitory concentration at the 50% level, which refers to growth in some studies and to a panel of isolates in others. Low readings indicate greater potency, high ones weaker potency. By MIC90 is commonly meant an inhibitory concentration at the 90% level, which refers to growth in some studies and to a panel of isolates in others. Turning to `CC[C@H](C)[C@H](NC(=O)[C@H](CCCCN)NC(=O)[C@H](CCCCN)NC(=O)[C@@H](NC(=O)[C@@H](NC(=O)[C@H](CC(=O)O)NC(=O)[C@H](Cc1ccccc1)NC(=O)[C@H](CC(C)C)NC(=O)CN)[C@@H](C)CC)[C@@H](C)CC)C(=O)N[C@@H](C)C(=O)N[C@@H](CCC(=O)O)C(=O)N[C@@H](CO)C(=O)N[C@H](C(N)=O)c1ccccc1` (H-GLFDIIKKIAES[Phg]-NH2), the MBC50 in the data set with Staphylococcus aureus [1] is 8 µg/mL (≈ 5.46 µM); in the data set with Staphylococcus aureus [2], 8 µg/mL (≈ 5.46 µM); in the data set on Enterococcus faecalis [3] it was 16 µg/mL (≈ 10.9 µM); against Enterococcus faecalis [4] it was 16 µg/mL (≈ 10.9 µM); in the data set on Streptococcus pyogenes, 4 µg/mL (≈ 2.73 µM). For the same molecule, the MBC90 was 16 µg/mL (≈ 10.9 µM) in the data set on Staphylococcus aureus [1]; 16 µg/mL (≈ 10.9 µM) against Staphylococcus aureus [2]; 32 µg/mL (≈ 21.8 µM) in the data set on Enterococcus faecalis [3]; 32 µg/mL (≈ 21.8 µM) against Enterococcus faecalis [4]; 8 µg/mL (≈ 5.46 µM) in the data set on Streptococcus pyogenes. Besides, the MIC50 worked out at 4 µg/mL (≈ 2.73 µM) in the data set on Staphylococcus aureus [1]; 4 µg/mL (≈ 2.73 µM) against Staphylococcus aureus [2]; 8 µg/mL (≈ 5.46 µM) against Enterococcus faecalis [3]; 8 µg/mL (≈ 5.46 µM) against Enterococcus faecalis [4]; 2 µg/mL (≈ 1.36 µM) against Streptococcus pyogenes. Also, the MIC90 amounted to 8 µg/mL (≈ 5.46 µM) with Staphylococcus aureus [1]; 8 µg/mL (≈ 5.46 µM) against Staphylococcus aureus [2]; 16 µg/mL (≈ 10.9 µM) in the data set on Enterococcus faecalis [3]; 16 µg/mL (≈ 10.9 µM) with Enterococcus faecalis [4]; 4 µg/mL (≈ 2.73 µM) against Streptococcus pyogenes. In the data set with A549, this molecule showed an Activity of 2%.
`CC[C@H]1OC(=O)[C@H](C)[C@@H](O[C@H]2C[C@@](C)(OC)[C@@H](O)[C@H](C)O2)[C@H](C)[C@@H](O[C@@H]2O[C@H](C)C[C@H](N(C)C)[C@H]2O)[C@](C)(OC)C[C@@H](C)C(=O)[C@H](C)[C@@H](O)[C@]1(C)O` [CLARITHROMYCIN]: the MBC50 in the data set on Staphylococcus aureus [1] came to 32 µg/mL (≈ 42.8 µM); in the data set on Staphylococcus aureus [2], 16 µg/mL (≈ 21.4 µM); against Enterococcus faecalis [3], 16 µg/mL (≈ 21.4 µM); in the data set on Enterococcus faecalis [4], 32 µg/mL (≈ 42.8 µM); in the data set with Streptococcus pyogenes it was 8 µg/mL (≈ 10.7 µM). For the same molecule, the MIC50 against Staphylococcus aureus [1] came out at 4 µg/mL (≈ 5.35 µM); in the data set on Staphylococcus aureus [2], 2 µg/mL (≈ 2.67 µM); against Enterococcus faecalis [3] it was 8 µg/mL (≈ 10.7 µM); in the data set with Enterococcus faecalis [4], 16 µg/mL (≈ 21.4 µM); with Streptococcus pyogenes, 2 µg/mL (≈ 2.67 µM). For the same molecule, the MIC90 against Staphylococcus aureus [1] came out at 16 µg/mL (≈ 21.4 µM); in the data set with Staphylococcus aureus [2] it was 8 µg/mL (≈ 10.7 µM); against Enterococcus faecalis [3], 32 µg/mL (≈ 42.8 µM); against Enterococcus faecalis [4], 64 µg/mL (≈ 85.6 µM); with Streptococcus pyogenes it was 8 µg/mL (≈ 10.7 µM). The MBC90 with Staphylococcus aureus [2] turned out to be 64 µg/mL (≈ 85.6 µM); with Enterococcus faecalis [3], 128 µg/mL (≈ 171 µM); in the data set with Streptococcus pyogenes it was 32 µg/mL (≈ 42.8 µM).
On to `C[C@@H](O)[C@H]1C(=O)N2C(C(=O)O)=C(SCCNC=N)C[C@H]12` [IMIPENEM ANHYDROUS], for which the MBC50 stood at 64 µg/mL (≈ 214 µM) in the data set with Staphylococcus aureus [1]; 4 µg/mL (≈ 13.4 µM) with Staphylococcus aureus [2]; 16 µg/mL (≈ 53.4 µM) against Enterococcus faecalis [3]; 32 µg/mL (≈ 107 µM) against Enterococcus faecalis [4]; 1 µg/mL (≈ 3.34 µM) against Streptococcus pyogenes. In addition, the MBC90 in the data set with Staphylococcus aureus [1] is 256 µg/mL (≈ 855 µM); against Staphylococcus aureus [2], 16 µg/mL (≈ 53.4 µM); against Enterococcus faecalis [3] it was 64 µg/mL (≈ 214 µM); in the data set with Enterococcus faecalis [4], 128 µg/mL (≈ 428 µM); against Streptococcus pyogenes, 4 µg/mL (≈ 13.4 µM). In addition, the MIC50 was determined as 16 µg/mL (≈ 53.4 µM) in the data set with Staphylococcus aureus [1]; 1 µg/mL (≈ 3.34 µM) in the data set with Staphylococcus aureus [2]; 4 µg/mL (≈ 13.4 µM) with Enterococcus faecalis [3]; 16 µg/mL (≈ 53.4 µM) in the data set with Enterococcus faecalis [4]; 0.5 µg/mL (≈ 1.67 µM) with Streptococcus pyogenes. Further, the MIC90 with Staphylococcus aureus [1] stood at 128 µg/mL (≈ 428 µM); with Staphylococcus aureus [2], 4 µg/mL (≈ 13.4 µM); in the data set on Enterococcus faecalis [3], 16 µg/mL (≈ 53.4 µM); in the data set on Enterococcus faecalis [4], 32 µg/mL (≈ 107 µM); in the data set with Streptococcus pyogenes it was 1 µg/mL (≈ 3.34 µM).
For the molecule `CC(=O)NC[C@H]1CN(c2ccc(N3CCOCC3)c(F)c2)C(=O)O1` [LINEZOLID], the MIC50 turned out to be 0.5 µg/mL (≈ 1.48 µM) against Staphylococcus aureus [1]; 0.5 µg/mL (≈ 1.48 µM) against Staphylococcus aureus [2]; 1 µg/mL (≈ 2.96 µM) in the data set with Enterococcus faecalis [3]; 1 µg/mL (≈ 2.96 µM) against Enterococcus faecalis [4]; 0.5 µg/mL (≈ 1.48 µM) in the data set on Streptococcus pyogenes. Further, the MIC90 with Staphylococcus aureus [1] was determined as 2 µg/mL (≈ 5.93 µM); with Staphylococcus aureus [2], 2 µg/mL (≈ 5.93 µM); in the data set with Enterococcus faecalis [3], 2 µg/mL (≈ 5.93 µM); in the data set with Enterococcus faecalis [4], 2 µg/mL (≈ 5.93 µM); with Streptococcus pyogenes, 1 µg/mL (≈ 2.96 µM). For the same molecule, the MBC50 was determined as 0.5 µg/mL (≈ 1.48 µM) with Staphylococcus aureus [2], 2 µg/mL (≈ 5.93 µM) in the data set on Enterococcus faecalis [3], 4 µg/mL (≈ 11.9 µM) with Enterococcus faecalis [4] and 1 µg/mL (≈ 2.96 µM) with Streptococcus pyogenes. Moreover, the MBC90 against Staphylococcus aureus [2] came to 2 µg/mL (≈ 5.93 µM); in the data set with Enterococcus faecalis [3] it was 4 µg/mL (≈ 11.9 µM); in the data set with Streptococcus pyogenes, 2 µg/mL (≈ 5.93 µM).
With `CN(C)c1ccc(O)c2c1C[C@H]1C[C@H]3[C@H](N(C)C)C(O)=C(C(N)=O)C(=O)[C@@]3(O)C(O)=C1C2=O` [MINOCYCLINE], the MIC50 in the data set on Staphylococcus aureus [1] is 4 µg/mL (≈ 8.74 µM); in the data set on Staphylococcus aureus [2] it was 4 µg/mL (≈ 8.74 µM); in the data set on Enterococcus faecalis [3], 8 µg/mL (≈ 17.5 µM); with Enterococcus faecalis [4], 16 µg/mL (≈ 35 µM); against Streptococcus pyogenes, 4 µg/mL (≈ 8.74 µM). Besides, the MIC90 against Staphylococcus aureus [1] turned out to be 8 µg/mL (≈ 17.5 µM); against Staphylococcus aureus [2], 8 µg/mL (≈ 17.5 µM); in the data set with Enterococcus faecalis [3] it was 16 µg/mL (≈ 35 µM); against Enterococcus faecalis [4] it was 32 µg/mL (≈ 69.9 µM); in the data set on Streptococcus pyogenes, 8 µg/mL (≈ 17.5 µM). Besides, the MBC50 came to 8 µg/mL (≈ 17.5 µM) in the data set with Staphylococcus aureus [2], 16 µg/mL (≈ 35 µM) with Enterococcus faecalis [3] and 8 µg/mL (≈ 17.5 µM) in the data set on Streptococcus pyogenes. Further, the MBC90 with Staphylococcus aureus [2] worked out at 32 µg/mL (≈ 69.9 µM); with Enterococcus faecalis [3], 64 µg/mL (≈ 140 µM); against Streptococcus pyogenes, 16 µg/mL (≈ 35 µM).
In the case of `CN[C@H](CC(C)C)C(=O)N[C@H]1C(=O)N[C@@H](CC(N)=O)C(=O)N[C@H]2C(=O)N[C@H]3C(=O)N[C@H](C(=O)N[C@H](C(=O)O)c4cc(O)cc(O)c4-c4cc3ccc4O)[C@H](O)c3ccc(c(Cl)c3)Oc3cc2cc(c3O[C@@H]2O[C@H](CO)[C@@H](O)[C@H](O)[C@H]2O[C@H]2C[C@](C)(N)[C@H](O)[C@H](C)O2)Oc2ccc(cc2Cl)[C@H]1O` [VANCOMYCIN], the MBC50 in the data set on Staphylococcus aureus [1] was determined as 1 µg/mL (≈ 0.69 µM); in the data set on Staphylococcus aureus [2], 1 µg/mL (≈ 0.69 µM); against Enterococcus faecalis [3], 2 µg/mL (≈ 1.38 µM); against Enterococcus faecalis [4] it was 64 µg/mL (≈ 44.2 µM); with Streptococcus pyogenes, 1 µg/mL (≈ 0.69 µM). In addition, the MBC90 against Staphylococcus aureus [1] is 2 µg/mL (≈ 1.38 µM); against Staphylococcus aureus [2] it was 2 µg/mL (≈ 1.38 µM); in the data set with Enterococcus faecalis [3], 4 µg/mL (≈ 2.76 µM); with Enterococcus faecalis [4], 256 µg/mL (≈ 177 µM); in the data set on Streptococcus pyogenes, 2 µg/mL (≈ 1.38 µM). Besides, the MIC50 against Staphylococcus aureus [1] was found to be 1 µg/mL (≈ 0.69 µM); in the data set on Staphylococcus aureus [2] it was 1 µg/mL (≈ 0.69 µM); against Enterococcus faecalis [3] it was 1 µg/mL (≈ 0.69 µM); in the data set with Enterococcus faecalis [4], 32 µg/mL (≈ 22.1 µM); against Streptococcus pyogenes, 0.5 µg/mL (≈ 0.345 µM). Also, the MIC90 against Staphylococcus aureus [1] worked out at 2 µg/mL (≈ 1.38 µM); in the data set on Staphylococcus aureus [2], 2 µg/mL (≈ 1.38 µM); with Enterococcus faecalis [3] it was 2 µg/mL (≈ 1.38 µM); in the data set with Enterococcus faecalis [4], 64 µg/mL (≈ 44.2 µM); against Streptococcus pyogenes it was 1 µg/mL (≈ 0.69 µM).
